Data taken from patent publication US9944687B2, “Compounds and their effects on feeding behaviour” (Imperial Innovations Limited, priority 2011, dated 2018).
Where no end group is shown, it is not given here.

Test: pair feeding in rats (food intake and body weight)
Type: in vivo, Male Wistar rats
Settings: for body weight gain versus corresponding pair-fed (PF) group: 10 days; for body weight gain versus corresponding pair-fed (PF) group / overall body weight change by the end of the 10 day test period versus saline control: FIG. 12b; for total food intake over 10 days / overall body weight change by the end of the 10 day test period versus saline control: daily injection, exendin-4 30, 285 100, 373 50, 398 200 nmol/kg; for total food intake over 10 days: FIG. 12a
Description: Pair feeding is a technique used to separate the weight loss observed in a cohort of animals which has been caused by appetite suppression from the weight loss caused by the induction of metabolic changes. Pair-feeding studies require daily measurement of body weight (BW) and food intake (FI). In pair-feeding studies, rats were divided into three weight-matched groups. Group 1 (the “saline” group) were given a daily injection of saline and allowed access to ad libitum food. Group 2 (identified by the code of the compound administered) were given daily injection of a selected compound of the invention and allowed access to ad libitum food.

Row | Substance | body weight compared to the saline control (100 nmol/kg daily) | body weight reduction versus pair-fed (G237 PF) group (100 nmol/kg daily) | body weight gain versus corresponding pair-fed (PF) group | total food intake over 10 days | overall body weight change by the end of the 10 day test period versus saline control
1 | HSQGTFTSDYSKYLDSQAVHLFIQWLLNGGPSSGAPPPS [compound 237] | reduction in body weight compared to the saline control | not solely mediated by a reduction in food intake | – | – | –
2 | His Ser Gln Gly Thr Phe Thr Ser Asp Tyr Ser His Tyr Leu Asp Ser Lys Ala Val His Leu Phe Ile Gln Trp Leu Leu Asn Gly-NH2 (HSQGTFTSDYSHYLDSKAVHLFIQWLLNG-NH2) [compound 285] | – | – | lower weight gains than the corresponding paired feeding groups | less overall food intake | lower body weight gain than the saline control group
3 | His Ser Gln Gly Thr Phe Thr Ser Asp Tyr Ser Lys Tyr Leu Asp Ser Gln Ala Val Arg Leu Phe Ile Glu Trp Leu Leu Asn Gly-NH2 (HSQGTFTSDYSKYLDSQAVRLFIEWLLNG-NH2) [compound 398] | – | – | lower weight gains than the corresponding paired feeding groups | less overall food intake | lower body weight gain than the saline control group
4 | His Ser Gln Gly Thr Phe Thr Ser Asp Tyr Ser Lys Tyr Leu Glu Ser Gln Ala Val His Leu Phe Ile Glu Trp Leu Lys Asn Gly-NH2 (HSQGTFTSDYSKYLESQAVHLFIEWLKNG-NH2) [compound 373] | – | – | lower weight gains than the corresponding paired feeding groups | less overall food intake | lower body weight gain than the saline control group
